Measured values taken from patent US8324152B2, “Composition for the treatment of atherosclerosis” (Institute National de la Sante et de la Recherche Medicale …, priority 2005, dated 2012).
No end group written: not given here.

Key:
[1] = tested on: Native or MDA-modified peptides 210 and 240; assay: Determination of antibody titers against peptide (serum IgG/IgM ELISA); type: in vivo, mice; conditions: Example 1; mouse serum 1:50, 405 nm
Experimental: (§1) Male ApoE −/− mice (B&M, RY, DENMARK, 11 week old) were implanted subcutaneously with mini-osmotic pumps (ALZET1002, DURECT CORPORATION) diffusing PBS or 10 μg of P210, MDA-P210 or P240 per day and for 14 day, at a rate of 0.25 μl/h.
Native or MDA-modified peptides 210 and 240 were used for coating (10 μg/ml of each in PBS pH 7.4) microtiter plates (Nunc MaxiSorp, Nunc, Roskilde, Denmark) in an overnight incubation at 4° C. Coated plates were washed with PBS with 0.05% Tween-20 and thereafter blocked with SuperBlock in Tris-buffered saline (TBS, Pierce) for 5 minutes at room temperature followed by an incubation of mouse serum diluted 1:50 in TBS-0.05% Tween-20 for 2 hours at room temperature and overnight at 4° C. After rinsing, depositions were detected by using biotinylated goat anti-mouse IgM or IgG antibodies (JACKSON IMMUNORESEARCH, West Grove, Pa.) that were incubated for 2 hours at room temperature. The plates were washed and bound biotinylated antibodies were detected by alkaline phosphatase-conjugated streptavidin (SIGMA). The color reaction was developed using phosphatase substrate kit (Pierce). The absorbency at 405 nm was measured after 1 hour of incubation at room temperature. Mean values were calculated after subtraction of background absorbance.

Male ApoE −/− mice = assay: Atherosclerotic lesion size (morphometric analysis) in apoE-/- mice after pump delivery of peptide; type: in vivo; conditions: Example 2; apoE null mice; result in words
Experimental: as §1
Then, the mice are kept for another 6 weeks and killed at 19 weeks of age.
Total Plasma and HDL cholesterol were measured with a commercially available cholesterol kit (SIGMA) according to the manufacturer's instructions. Morphometric and immuno-histochemical studies were performed in the aortic sinus and in the thoracic aorta (spanning from the brachiocephalic artery to the renal arteries). Collagen fibers were stained with Sirius red. Immuno-histochemical analysis were then performed. The following primary antibodies were used: MOMA-2 (BIOSOURCE INTERNATIONAL) as a specific marker for macrophages; anti-mouse CD3− (SANTA CRUZ); anti-smooth muscle actin, alkaline phosphatase conjugate, clone 1A4 (SIGMA); and anti-IL-10 antibody (SANTA CRUZ). Morphometric analysis was performed with an automated image processor (HISTOLAB, MICROVISION).
Male apoE−/− mice (B&M, RY, DENMARK, 11 week old) were implanted subcutaneously with mini-osmotic pumps (ALZET1002, DURECT CORPORATION) diffusing phosphate buffer saline (PBS) as control or 10 μg per day of P210, MDA-P210 or P240, for 14 days, at a rate of […]. An additional group of mice receiving ovalbumin (OVA) peptide (323-339) served as control.
Then, the mice were kept for another 6 or 10 weeks and killed at 19 or 23 weeks of age.
Male apoE−/− mice (11-week old) were implanted subcutaneously with mini-osmotic pumps (ALZET1002) diffusing phosphate buffer saline (PBS), as control, or 10 μg per day of P210, MDA-P210 or P240, for 14 days at a rate of 0.25 μl/h. An additional group of mice receiving ovalbumin (OVA) peptide (323-339) served as control. Mice were kept for another 6 weeks and killed at 19 weeks of age. […]

CD4+ cells = assay: Cell proliferation assay: CD4+ cells with CD11c+ dendritic cells from treated mice, [3H]-thymidine; type: cell-based; conditions: Example 1; anti-CD3 3 μg/ml, 72 hours; PBS control 20 000 cpm
Text: T cells were purified from spleen or from draining lymph nodes by negative selection with anti-CD11b (M1/70), anti B220, anti-CD8 and anti-NK cells (DX5) followed by depletion with a mixture of magnetic beads coated with anti-rat Ig (DYNAL). CD11c+ dendritic cells were purified by positive selection with anti-CD11c using directly conjugated anti-CD11c beads (clone N418; MILTENYI BIOTEC).
For the cell proliferation assay, purified CD4+ cells (50 000) were mixed with CD11c+ cells (10 000) and anti-CD3 antibodies (3 μg/ml) for 72 hours. [3H]-Thymidine (1 μCi; PERKIN ELMER) was added for the last 18 hours of cell culture.

| Substance | IgG against MDA-P210 [1] [absorbance units] | IgG against MDA-P240 [1] [absorbance units] | IgG against P210 [1] [absorbance units] | IgM against MDA-P210 [1] [absorbance units] | IgM against MDA-P240 [1] [absorbance units] | IgM against P210 [1] [absorbance units] | Effect of continuous administration on atherosclerotic plaques, associated inflammation and plaque composition (Male ApoE −/− mice) | Proliferation of CD4+ cells from control mice in the presence of CD11c+ cells from treated mice (CD4+ cells) [cpm] |
| --- | --- | --- | --- | --- | --- | --- | --- | --- |
| FPDLGQEVALNANTKNQKIR (peptide derived from apolipoprotein B) [P240, Human apoB-100 derived peptide, amino acids 3586 to 3605] | 0.62±0.11 | 0.037±0.007 | 0.47±0.09 | 0.79±0.45 | 1.34±0.52 | 0.79±0.45 | – | – |
| ISQAVHAAHAEINEAGR (peptide derived from ovalbumin) [Control: chicken ovalbumin (OVA) peptide, amino acids 323 to 339, reference compound] | – | – | – | – | – | – | No significant modification | – |
| KTTKQSFDLSVKAQYKKNKH (peptide derived from apolipoprotein B) [P210, Human apoB-100 derived peptide, amino acids 3136 to 3155] | 1.45±0.49 | 0.080±0.038 | 0.81±0.22 | 1.38±0.04 | 1.80±0.41 | 1.17±0.22 | diminution of the atherosclerotic plaques and of associated inflammation | – |
| MDA-P210: Malondialdehyde (MDA)-modified human apoB-100 derived peptide; native P210 modified by 0.5 mol/L MDA for 3 hours at 37° C. (KTTKQSFDLSVKAQYKKNKH; not fully specified) | 0.83±0.28 | 0.041±0.007 | 0.51±0.07 | 1.30±0.13 | 1.24±0.40 | 0.55±0.25 | diminution of the atherosclerotic plaques and of associated inflammation | 9500 |
